# Measurements taken from patent US20250091992A1, “NOVEL COMPOUNDS AND USES THEREOF” (KANNA HEALTH LIMITED, priority 2021, published 2025).
# Where two headings read alike, the source gives them in different places.
# How the values were obtained:
# [1] = molecular target: human recombinant PDE-4B1 (Homo sapiens, UniProt Q07343); experiment: PDE4-B1 assay (Compounds of Formula I), SPA; format: biochemical; details: for IC50: 4-parameter logistical fit, two technical replicates; for inhibition at 30 µM: relative to Ro 20-1724
# Method: (§1) 20 mins after addition of human recombinant PDE-4B1 (1.2 IEU) or PDE-4D2 (1.5 IEU), SPA beads were added and incubated at 22° C. for a further 30 mins. [^3H]5′AMP was quantified by a standard scintillation counting method.
# [2] = molecular target: human recombinant PDE-4D2 (Homo sapiens, UniProt Q08499); experiment: PDE4-D2 assay (Compounds of Formula I), SPA; format: biochemical; details: for IC50: 4-parameter logistical fit, two technical replicates; for inhibition at 30 µM: relative to Ro 20-1724
# Method: as §1
# [3] = molecular target: T1, human serotonin transporter (Homo sapiens, UniProt P31645); details: for inhibition: 10 µM;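 as to all read-outs here: Read-out: uptake of tritium-labelled serotonin, measured by scintillation counting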
# Method: (§2) Following incubation, [^3H] serotonin uptake was quantified by a standard scintillation counting method.
# [4] = molecular target: T1, human serotonin transporter; experiment: cell-based
# Method: as §2
# in vivo = experiment: in vivo; parameters: species or system male C57Bl/6J mice; details: male, C57Bl/6J, mouse, ip, 30 mg/kg
# Method: Groups of 18 male C57Bl/6J mice (weighing between 22.7 and 27.3 g) received a single administration of test compound (30 mg/kg; i.p.) in methylcellulose (0.5% w/v) at a nominal concentration of […].
# Three mice from each dose group were subject to cardiac puncture under general anesthesia at 0.25, 0.50, 1.00, 1.50, 2.00 and 4.00 hours post-dose and plasma samples generated for application of standard LC-MS/MS bioanalytical methods.
# Quantitation of compound concentration was derived from reference calibration data. Pharmacokinetic data were derived from serial plasma concentrations.
# Chain of human recombinant PDE-4B1 (Q07343 whole entry): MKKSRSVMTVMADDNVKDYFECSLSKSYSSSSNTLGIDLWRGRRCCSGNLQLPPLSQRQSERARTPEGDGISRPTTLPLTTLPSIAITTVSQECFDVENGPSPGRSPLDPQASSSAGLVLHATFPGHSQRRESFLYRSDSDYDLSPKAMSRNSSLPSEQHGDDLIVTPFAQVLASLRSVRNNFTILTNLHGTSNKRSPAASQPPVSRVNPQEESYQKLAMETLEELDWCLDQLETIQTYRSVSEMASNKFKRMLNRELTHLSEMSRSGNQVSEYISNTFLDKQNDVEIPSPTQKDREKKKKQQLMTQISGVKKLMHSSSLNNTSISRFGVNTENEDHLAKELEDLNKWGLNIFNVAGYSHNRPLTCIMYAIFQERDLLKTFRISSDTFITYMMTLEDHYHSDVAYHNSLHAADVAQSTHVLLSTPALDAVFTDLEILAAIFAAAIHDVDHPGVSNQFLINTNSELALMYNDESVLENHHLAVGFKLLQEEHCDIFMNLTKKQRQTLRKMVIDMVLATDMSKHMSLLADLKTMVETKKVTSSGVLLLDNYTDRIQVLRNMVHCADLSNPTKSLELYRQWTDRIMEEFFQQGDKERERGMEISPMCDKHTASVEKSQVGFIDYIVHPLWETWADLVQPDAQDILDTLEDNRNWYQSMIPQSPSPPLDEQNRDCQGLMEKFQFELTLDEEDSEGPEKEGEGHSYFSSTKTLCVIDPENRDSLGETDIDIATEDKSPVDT
# Chain of human recombinant PDE-4D2 (Q08499 303-809): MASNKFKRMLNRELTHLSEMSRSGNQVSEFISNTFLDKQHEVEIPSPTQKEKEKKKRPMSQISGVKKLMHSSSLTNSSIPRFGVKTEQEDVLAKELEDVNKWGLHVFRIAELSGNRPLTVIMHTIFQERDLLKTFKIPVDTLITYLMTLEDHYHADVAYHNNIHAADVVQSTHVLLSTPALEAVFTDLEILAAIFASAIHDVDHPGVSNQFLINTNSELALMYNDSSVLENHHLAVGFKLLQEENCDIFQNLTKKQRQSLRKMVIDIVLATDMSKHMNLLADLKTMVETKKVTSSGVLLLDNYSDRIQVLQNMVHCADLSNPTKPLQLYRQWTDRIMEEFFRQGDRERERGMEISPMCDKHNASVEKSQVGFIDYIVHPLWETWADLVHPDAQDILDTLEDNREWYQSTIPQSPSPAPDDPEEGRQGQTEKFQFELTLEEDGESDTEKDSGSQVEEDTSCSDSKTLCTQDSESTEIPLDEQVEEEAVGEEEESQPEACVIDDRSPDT
# T1 sequence (P31645 whole entry): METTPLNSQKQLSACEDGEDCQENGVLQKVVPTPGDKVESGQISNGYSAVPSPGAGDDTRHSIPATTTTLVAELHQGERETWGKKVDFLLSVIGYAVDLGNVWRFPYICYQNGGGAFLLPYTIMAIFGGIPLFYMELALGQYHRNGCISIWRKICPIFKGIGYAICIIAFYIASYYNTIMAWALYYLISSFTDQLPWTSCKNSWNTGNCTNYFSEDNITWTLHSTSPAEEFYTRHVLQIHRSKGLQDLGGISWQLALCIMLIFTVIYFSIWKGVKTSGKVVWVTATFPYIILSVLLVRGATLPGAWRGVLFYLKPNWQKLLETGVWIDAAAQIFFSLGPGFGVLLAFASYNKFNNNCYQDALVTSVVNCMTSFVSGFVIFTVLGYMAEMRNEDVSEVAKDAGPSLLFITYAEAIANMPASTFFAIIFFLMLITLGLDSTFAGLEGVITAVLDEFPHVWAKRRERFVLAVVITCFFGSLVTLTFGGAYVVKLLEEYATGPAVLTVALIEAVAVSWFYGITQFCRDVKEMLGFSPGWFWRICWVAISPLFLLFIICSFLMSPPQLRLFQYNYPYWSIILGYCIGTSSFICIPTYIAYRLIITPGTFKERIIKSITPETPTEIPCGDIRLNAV
SMILES,inhibition at 30 µM [1],inhibition at 30 µM [2],inhibition [3],further results
CCSc1cc([C@@]23CCC(=O)C[C@@H]2N(C)CC3)ccc1OC [Compound 3],–,–,–,IC50 [1]: 5.2 µM; IC50 [2]: 1.3 µM; IC50 [3]: 0.005 µM
COc1ccc([C@@]23CCC(=O)C[C@@H]2N(C)CC3)cc1OCC(F)(F)F [Compound 4],–,–,–,IC50 [1]: 7.1 µM; IC50 [2]: 11.3 µM; IC50 [4]: < 0.1 µM
COc1ccc([C@@]23CCC(=O)C[C@@H]2N(C)CC3)cc1OCC(F)F [Compound 7],–,–,–,IC50 [3]: 0.02 µM
COc1ccc([C@@]23CCC(=O)C[C@@H]2N(C)CC3)cc1O [Compound 10],–,–,–,IC50 [1]: > 30 µM; IC50 [2]: > 30 µM; IC50 [3]: 0.3 µM
COc1ccc([C@@]23CCC(=O)C[C@@H]2N(C)CC3)cc1OCc1ccccc1 [Compound 12],–,–,–,IC50 [4]: > 10 µM
COc1ccc([C@@]23CCC(=O)C[C@@H]2N(C)CC3)cc1OC1CCCCC1 [Compound 14],94%,97%,59%,–
CCOc1ccc([C@@]23CCC(=O)C[C@@H]2N(C)CC3)cc1O [Compound 16],-1%,3%,98%,–
CCOc1ccc([C@@]23CCC(=O)C[C@@H]2N(C)CC3)cc1SC [Compound 17],61%,74%,99%,–
CC(C)Oc1ccc([C@@]23CCC(=O)C[C@@H]2N(C)CC3)cc1O [Compound 18],-4%,-3%,86%,–
COc1cc([C@@]23CCC(=O)C[C@@H]2N(C)CC3)ccc1OC(C)C [Compound 19],1%,3%,99%,–
CCCCOc1cc([C@@]23CCC(=O)C[C@@H]2N(C)CC3)ccc1OCC [Compound 20],83%,92%,100%,–
CC(C)Oc1ccc([C@@]23CCC(=O)C[C@@H]2N(C)CC3)cc1OCC1CC1 [Compound 22],38%,37%,91%,–
CCOc1ccc([C@@]23CCC(=O)C[C@@H]2N(C)CC3)cc1OC1CCCCC1 [Compound 23],88%,93%,77%,–
CCOc1ccc([C@@]23CCC(=O)C[C@@H]2N(C)CC3)cc1OCC1CC1 [Compound 24],–,–,91%,AUC(0-inf) (in vivo): 825 ng·h/mL; Cmax (in vivo): 492 ng/mL; Tmax (in vivo): 15 min; half-life (in vivo): 76.8 min; IC50 [3]: 0.02 µM
CSc1cc([C@@]23CCC(=O)C[C@@H]2N(C)CC3)ccc1OC(C)C [Compound 25],–,–,–,IC50 [1]: > 30 µM; IC50 [2]: > 30 µM
CC(C)Oc1ccc([C@@]23CCC(=O)C[C@@H]2N(C)CC3)cc1OC1CCCCC1 [Compound 26],26%,20%,81%,–
CC(C)Oc1ccc([C@@]23CCC(=O)C[C@@H]2N(C)CC3)cc1OC1CCCC1 [Compound 28],53%,55%,98%,–
CCOc1cc([C@@]23CCC(=O)C[C@@H]2N(C)CC3)ccc1OC(C)C [Compound 29],40%,32%,99%,–
CCCCOc1cc([C@@]23CCC(=O)C[C@@H]2N(C)CC3)ccc1OC(C)C [Compound 30],24%,31%,95%,–
CCOc1ccc([C@@]23CCC(=O)C[C@@H]2N(C)CC3)cc1OC [Compound 31],–,–,–,IC50 [4]: < 0.1 µM
CN1CC[C@]2(c3ccc(OCC4CC4)c(O)c3)CCC(=O)C[C@H]12 [Compound 33],–,–,–,IC50 [1]: > 30 µM; IC50 [2]: > 30 µM; IC50 [3]: 2.1 µM
COc1cc([C@@]23CCC(=O)C[C@@H]2N(C)CC3)ccc1OCC1CC1 [Compound 34],–,–,–,IC50 [1]: > 30 µM; IC50 [2]: > 30 µM; IC50 [3]: 0.9 µM
